This is an account of results in patent USRE47689E1, “Compounds for treating spinal muscular atrophy” (PTC Therapeutics, Inc., priority 2011, dated 2019).

The test system of data set [1] is Smn protein. Put plainly: Smn protein assay in cultured cells (SMN HTRF). Type of data set: cell-based, human. The note with it: 48 hours; for maximum fold (Fold) increase of Smn protein: SMA patient fibroblast cells, 7-point concentration data, fold increase relative to vehicle control (SMN HTRF); for EC1.5x (concentration giving 1.5-fold Smn protein increase): SMA Type 1 patient fibroblast cells (GM03813), 7-point concentration curve, SMN HTRF, concentration producing 1.5 times Smn protein vs DMSO vehicle control, read-out: EC1.5x for Smn protein expression. The gist of the method:
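Lysates in RIPA with protease inhibitors are incubated overnight at room temperature with HTRF anti-SMN antibodies. EC1.5x is derived from fold increase in ΔF over vehicle.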
A general note: In TR-FRET formats the signal depends on donor and acceptor labels being close together.

Data set [2] relates to SMN2 minigene (full length SMN2 minigene mRNA containing SMN2 exon 7). The data set can be described thus: SMN2 minigene mRNA splicing RT-qPCR assay in cultured cells. Type of data set: cell-based, human. The note with it: Homo sapiens, HEK293-H, read-out: EC1.5x for production of full length SMN2 mRNA. The gist of the method:
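Read-out: full-length (exon 7-included) SMN2 minigene mRNA by multiplex RT-qPCR with GAPDH, efficiency-corrected (1+E)^−Ct, GAPDH-normalized and divided by vehicle. Stably transfected HEK293H cells, 24 h compound exposure, duplicates per concentration. Value is EC1.5x, reported as star ranges.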

[3] abbreviates: HEK293H cells stably transfected with SMN2-A minigene, 24 hours, 7-point concentration curve, 1.5-fold relative to vehicle-treated cells.

Like-named read-outs stand apart in the source and are kept apart here. A value given as a limit tells only on which side of the number the result lay.

`Cc1cccn2cc(-c3cc4ccc(N5CCN[C@H](C)C5)cc4oc3=O)nc12` [Compound 247, 3-(8-methylimidazo[1,2-a]pyridin-2-yl)-7-[(3R)-3-methylpiperazin-1-yl]-2H-chromen-2-one]: the melting point is 299 °C (dec.). In addition, the “maximum fold (Fold) increase of Smn protein” value (“maximum fold (Fold) increase” below) in data set [1] is “** (fold increase between >1.2 and ≤1.35)”. Moreover, the EC (1.5-fold) in data set [2] (setting [3]) was 0.1 to 0.3 µM.
`O=c1oc2cc(N3CCNCC3)cc(F)c2cc1-c1nc2c(C(F)(F)F)cccc2o1` [Compound 254, 5-fluoro-7-(piperazin-1-yl)-3-[4-(trifluoromethyl)-1,3-benzoxazol-2-yl]-2H-chromen-2-one] registered a melting point of 249 to 253 °C. Moreover, the “maximum fold (Fold) increase” value in data set [1] is reported as “* (maximum fold increase of ≤1.2)”. For the same compound, the EC (1.5-fold) in data set [2] (setting [3]) was 0.3 to 1 µM.
On to `Cc1cn2cc(-c3cc4ccc(N5CCN6CCCCC6C5)cc4oc3=O)nc2c(C)n1` (centres unmarked) [Compound 633, 3-(6,8-dimethylimidazo[1,2-a]pyrazin-2-yl)-7-(octahydro-2H-pyrido[1,2-a]pyrazin-2-yl)-2H-chromen-2-one], for which the melting point lay within 225 to 227 °C. Besides, in data set [1], the “maximum fold (Fold) increase” value was “*** (fold increase between >1.35 and ≤1.5)”. Moreover, in data set [2] (setting [3]), the EC (1.5-fold) was below 0.1 µM.
Consider `CCN1CCC(c2ccc3cc(-c4cn5cc(C)nc(C)c5n4)c(=O)oc3c2)CC1` [Compound 749, 3-(6,8-dimethylimidazo[1,2-a]pyrazin-2-yl)-7-(1-ethylpiperidin-4-yl)-2H-chromen-2-one], for which the melting point is 218 to 223 °C. Besides, in data set [1], the EC1.5x (concentration giving 1.5-fold Smn protein increase) is below 300 nM and the “maximum fold (Fold) increase” value is on record as “***** (fold increase >1.65)”. Besides, in data set [2] (setting [3]), the EC (1.5-fold) is below 0.1 µM.
In turn, `CN(C)Cc1ccc2cc(-c3nc4ccccc4[nH]3)c(=O)oc2c1` [Compound 396, 3-(1H-benzimidazol-2-yl)-7-[(dimethylamino)methyl]-2H-chromen-2-one] showed a melting point of 214 to 218 °C. Further, the “maximum fold (Fold) increase” value in data set [1] is “** (fold increase between >1.2 and ≤1.35)”. In addition, in data set [2] (setting [3]), the EC (1.5-fold) lay within 1 to 3 µM.
`Cc1cn2cc(-c3cc4ccc(N5CCNCC5)cc4oc3=O)nc2cn1` [Compound 567, 3-(6-methylimidazo[1,2-a]pyrazin-2-yl)-7-(piperazin-1-yl)-2H-chromen-2-one]: the melting point lay within 288 to 290 °C. In addition, in data set [1], the EC1.5x (concentration giving 1.5-fold Smn protein increase) was below 300 nM and the “maximum fold (Fold) increase” value is “***** (fold increase >1.65)”. The EC (1.5-fold) in data set [2] (setting [3]) is below 0.1 µM.
Regarding `C[C@H]1CN(c2ccc3cc(-c4ccncc4)c(=O)oc3c2)CCN1` [Compound 549, 7-[(3S)-3-methylpiperazin-1-yl]-3-(pyridin-4-yl)-2H-chromen-2-one], the melting point is 210 to 213 °C. Further, the “maximum fold (Fold) increase” value in data set [1] is “** (fold increase between >1.2 and ≤1.35)”. Moreover, the EC (1.5-fold) in data set [2] (24 h) lay within 1 to 3 µM.
Consider `O=c1oc2cc(N3CCNCC3)ccc2cc1-c1cn2cccc(F)c2n1` [Compound 149, 3-(8-fluoroimidazo[1,2-a]pyridin-2-yl)-7-(piperazin-1-yl)-2H-chromen-2-one], for which the melting point lay in the range of 236 to 238 °C. Also, the “maximum fold (Fold) increase” value in data set [1] was “*** (fold increase between >1.35 and ≤1.5)”. Further, in data set [2] (setting [3]), the EC (1.5-fold) was in the range of 1 to 3 µM.
In turn, `COc1cc(-c2cc3ccc(N4CCN[C@@H](C)C4)cc3oc2=O)ccc1F` [Compound 577, 3-(4-fluoro-3-methoxyphenyl)-7-[(3S)-3-methylpiperazin-1-yl]-2H-chromen-2-one] gave a melting point of 189 to 191 °C. Besides, the “maximum fold (Fold) increase” value in data set [1] is “** (fold increase between >1.2 and ≤1.35)”. The EC (1.5-fold) in data set [2] (setting [3]) was 1 to 3 µM.
Regarding `CCN1CC[C@@H](Nc2ccc3cc(-c4cn5cc(C)nc(C)c5n4)c(=O)oc3c2)C1` [Compound 731, 3-(6,8-dimethylimidazo[1,2-a]pyrazin-2-yl)-7-{[(3R)-1-ethylpyrrolidin-3-yl]amino}-2H-chromen-2-one], the melting point lay in the range of 209 to 215 °C. The “maximum fold (Fold) increase” value in data set [1] was “*** (fold increase between >1.35 and ≤1.5)”. In addition, the EC (1.5-fold) in data set [2] (setting [3]) was below 0.1 µM.
The compound `Cc1cn2cc(-c3cc4ccc(N5CCCNCC5)cc4oc3=O)nc2s1` [Compound 233, 7-(1,4-diazepan-1-yl)-3-(2-methylimidazo[2,1-b][1,3]thiazol-6-yl)-2H-chromen-2-one] showed a melting point of 188 to 191 °C. For the same compound, the “maximum fold (Fold) increase” value in data set [1] was “*** (fold increase between >1.35 and ≤1.5)”. The EC (1.5-fold) in data set [2] (setting [3]) fell in the range of 0.1 to 0.3 µM.
`Cc1ccc2nc(-c3cc4ccc(N5CCCN(C)CC5)cc4oc3=O)cn2c1` [Compound 142, 7-(4-methyl-1,4-diazepan-1-yl)-3-(6-methylimidazo[1,2-a]pyridin-2-yl)-2H-chromen-2-one] showed a melting point of 175 to 180 °C. Besides, in data set [1], the EC1.5x (concentration giving 1.5-fold Smn protein increase) was 300 to 1000 nM; the “maximum fold (Fold) increase” value was “**** (fold increase between >1.5 and ≤1.65)”. Moreover, in data set [2] (setting [3]), the EC (1.5-fold) was in the range of 1 to 3 µM.
Take `COc1ccc(-c2cc3ccc(N4CCN[C@H](C)C4)cc3oc2=O)cc1` [Compound 448, 3-(4-methoxyphenyl)-7-[(3R)-3-methylpiperazin-1-yl]-2H-chromen-2-one]: the melting point is 123 to 126 °C. Besides, the “maximum fold (Fold) increase” value in data set [1] is given as “* (maximum fold increase of ≤1.2)”. The EC (1.5-fold) in data set [2] (setting [3]) fell in the range of 1 to 3 µM.
Consider `C[C@@H]1CN[C@@H](C)CN1c1ccc2cc(-c3cn4ccc(C(F)(F)F)cc4n3)c(=O)oc2c1` [Compound 277, 7-[(2R,5S)-2,5-dimethylpiperazin-1-yl]-3-[7-(trifluoromethyl)imidazo[1,2-a]pyridin-2-yl]-2H-chromen-2-one], for which the melting point was in the range of 213 to 219 °C. Also, the “maximum fold (Fold) increase” value in data set [1] is “* (maximum fold increase of ≤1.2)”. Moreover, the EC (1.5-fold) in data set [2] (setting [3]) lay in the range of 0.3 to 1 µM.
`O=c1oc2cc(N3CCNCC3)ccc2cc1-c1cnccc1Cl` [Compound 235, 3-(4-chloropyridin-3-yl)-7-(piperazin-1-yl)-2H-chromen-2-one] returned a melting point of 175 to 177 °C. Also, in data set [1], the “maximum fold (Fold) increase” value was “* (maximum fold increase of ≤1.2)”. The EC (1.5-fold) in data set [2] (24 h) was 1 to 3 µM.
The compound `Cc1cn2cc(-c3cc4ccc(N5CCC(CN)CC5)cc4oc3=O)cc2c(C)n1` [Compound 784, 7-[4-(aminomethyl)piperidin-1-yl]-3-(1,3-dimethylpyrrolo[1,2-a]pyrazin-7-yl)-2H-chromen-2-one] yielded a melting point of 256 to 259 °C. Further, the “maximum fold (Fold) increase” value in data set [1] is “** (fold increase between >1.2 and ≤1.35)”. In data set [2] (setting [3]), the EC (1.5-fold) fell in the range of 1 to 3 µM.
`Cc1nn2cc(-c3cc4ccc(N5CCCN(C)CC5)cc4oc3=O)nc2s1` [Compound 451, 7-(4-methyl-1,4-diazepan-1-yl)-3-(2-methylimidazo[2,1-b][1,3,4]thiadiazol-6-yl)-2H-chromen-2-one]: the melting point fell in the range of 191 to 195 °C. Further, the “maximum fold (Fold) increase” value in data set [1] is “*** (fold increase between >1.35 and ≤1.5)”. Also, in data set [2] (setting [3]), the EC (1.5-fold) was 1 to 3 µM.
The compound `CCCN1CCC(c2ccc3cc(-c4cn5cc(C)nc(C)c5n4)c(=O)oc3c2)CC1` [Compound 842, 3-(6,8-dimethylimidazo[1,2-a]pyrazin-2-yl)-7-(1-propylpiperidin-4-yl)-2H-chromen-2-one] showed a melting point of 208 to 212 °C. Also, in data set [1], the EC1.5x (concentration giving 1.5-fold Smn protein increase) was below 300 nM and the “maximum fold (Fold) increase” value is “***** (fold increase >1.65)”. Further, the EC (1.5-fold) in data set [2] (setting [3]) was below 0.1 µM.
Consider `C[C@@H]1CN(c2ccc3cc(-c4cc5ccccc5s4)c(=O)oc3c2)C[C@H](C)N1` [Compound 408, 3-(1-benzothiophen-2-yl)-7-[(3R,5S)-3,5-dimethylpiperazin-1-yl]-2H-chromen-2-one], for which the melting point lay in the range of 271 to 273 °C. The “maximum fold (Fold) increase” value in data set [1] is on record as “* (maximum fold increase of ≤1.2)”. For the same compound, the EC (1.5-fold) in data set [2] (setting [3]) lay in the range of 0.3 to 1 µM.
As to `C[C@H]1CN(c2ccc3cc(-c4cn5cc(F)cnc5n4)c(=O)oc3c2)CCN1` [Compound 492, 3-(6-fluoroimidazo[1,2-a]pyrimidin-2-yl)-7-[(3S)-3-methylpiperazin-1-yl]-2H-chromen-2-one], the melting point fell in the range of 230 to 236 °C. In addition, in data set [1], the “maximum fold (Fold) increase” value was “* (maximum fold increase of ≤1.2)”. For the same compound, the EC (1.5-fold) in data set [2] (setting [3]) is 1 to 3 µM.
On to `Cc1cn2cc(-c3cc4ccc(N5CCN(C)[C@H](C)C5)cc4oc3=O)nc2cn1` [Compound 628, 7-[(3R)-3,4-dimethylpiperazin-1-yl]-3-(6-methylimidazo[1,2-a]pyrazin-2-yl)-2H-chromen-2-one], for which the melting point lay in the range of 256 to 258 °C. Besides, in data set [1], the EC1.5x (concentration giving 1.5-fold Smn protein increase) was below 300 nM; the “maximum fold (Fold) increase” value is “**** (fold increase between >1.5 and ≤1.65)”. In addition, the EC (1.5-fold) in data set [2] (setting [3]) is below 0.1 µM.
`Cc1cn2cc(-c3cc4ccc(N5CC6CC5CN6)cc4oc3=O)cc2c(C)n1` (centres unmarked) [Compound 783, 7-(2,5-diazabicyclo[2.2.1]hept-2-yl)-3-(1,3-dimethylpyrrolo[1,2-a]pyrazin-7-yl)-2H-chromen-2-one]: the melting point lay within 236 to 239 °C. Moreover, in data set [1], the “maximum fold (Fold) increase” value was “*** (fold increase between >1.35 and ≤1.5)”. Also, the EC (1.5-fold) in data set [2] (setting [3]) was below 0.1 µM.

The term melting point denotes the temperature of the solid-liquid transition.
